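Test compounds were applied to cells in 96-well plates for 48 hours at 5 doses. GI50 marks 50% less growth.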 Calls of active or inactive are those of the source. Cut-off read from the data, not from the text of the source: active = GI50 up to about 1.1 µM and inactive = higher.
Columns and labels:
Test in all cases: inhibition of tumour cell growth, NCI panel, 48 h
[1] = tested on: A549
[2] = tested on: A498
[3] = tested on: Malme-3M
[4] = tested on: UACC-257
[5] = tested on: KM12
[6] = tested on: DU-145
[7] = tested on: LOX IMVI
[8] = tested on: NCI-H226
[9] = tested on: UACC-62
[10] = tested on: NCI/ADR-RES
[11] = tested on: RXF 393
[12] = tested on: NCI-H23
[13] = tested on: SNB-75
[14] = tested on: IGROV-1
[15] = tested on: CCRF-CEM
[16] = tested on: SF-268
[17] = tested on: MDA-MB-231
[18] = tested on: T47D
[19] = tested on: HCT-15
[20] = tested on: SF-539

SMILES | GI50 [1] | GI50 [2] | GI50 [3] | GI50 [4] | GI50 [5] | GI50 [6] | GI50 [7] | GI50 [8] | GI50 [9] | GI50 [10] | GI50 [11] | GI50 [12] | GI50 [13] | GI50 [14] | GI50 [15] | GI50 [16] | GI50 [17] | GI50 [18] | GI50 [19] | GI50 [20]
COc1ccc(/C=C/c2nccc3ccccc23)cc1OC | > 10 µM (inactive) | 9.73 µM (inactive) | > 10 µM (inactive) | > 10 µM (inactive) | 8.13 µM (inactive) | > 10 µM (inactive) | 4.57 µM (inactive) | > 10 µM (inactive) | > 10 µM (inactive) | 9.38 µM (inactive) | > 10 µM (inactive) | 7.21 µM (inactive) | > 10 µM (inactive) | > 10 µM (inactive) | 6.52 µM (inactive) | > 10 µM (inactive) | 2.77 µM (inactive) | > 10 µM (inactive) | > 10 µM | > 10 µM (inactive)
Sc1cnnc2ccc(Br)cc12 | 36.1 µM (inactive) | 53.3 µM (inactive) | 24.7 µM (inactive) | 29.4 µM (inactive) | 50.4 µM (inactive) | 50.7 µM (inactive) | 46 µM (inactive) | 49.3 µM (inactive) | 32.3 µM (inactive) | 48.6 µM (inactive) | 22.7 µM (inactive) | 28.8 µM (inactive) | > 100 µM (inactive) | 48.1 µM (inactive) | 36.9 µM (inactive) | 58.7 µM (inactive) | > 100 µM (inactive) | 51.9 µM (inactive) | 78.3 µM | 33 µM (inactive)
Brc1ccc(C2CC3(c4ccccc4)ON=C(c4ccccc4)N3c3ccccc3S2)cc1 (stereo not drawn) | > 100 µM (inactive) | > 100 µM (inactive) | > 100 µM (inactive) | > 100 µM (inactive) | > 100 µM (inactive) | > 100 µM (inactive) | > 100 µM (inactive) | > 100 µM (inactive) | > 100 µM (inactive) | > 100 µM (inactive) | > 100 µM (inactive) | > 100 µM (inactive) | > 100 µM (inactive) | > 100 µM (inactive) | > 100 µM (inactive) | > 100 µM (inactive) | > 100 µM (inactive) | > 100 µM (inactive) | > 100 µM | > 100 µM (inactive)
CC(C)C1CSC2N1C(=O)C2(OCc1ccccc1)C1CC1 (stereo not drawn) | > 100 µM (inactive) | 51.3 µM (inactive) | > 100 µM (inactive) | > 100 µM (inactive) | > 100 µM (inactive) | > 100 µM (inactive) | > 100 µM (inactive) | > 100 µM (inactive) | > 100 µM (inactive) | 63.4 µM (inactive) | > 100 µM (inactive) | > 100 µM (inactive) | 97.7 µM (inactive) | > 100 µM (inactive) | > 100 µM (inactive) | > 100 µM (inactive) | > 100 µM (inactive) | 97.5 µM (inactive) | > 100 µM | > 100 µM (inactive)
COC(=O)NC(Nc1ccc(C)cc1)(C(F)(F)F)C(F)(F)F | > 100 µM (inactive) | > 100 µM (inactive) | > 100 µM (inactive) | > 100 µM (inactive) | > 100 µM (inactive) | > 100 µM (inactive) | > 100 µM (inactive) | > 100 µM (inactive) | > 100 µM (inactive) | > 100 µM (inactive) | 0.172 µM (active) | > 100 µM (inactive) | > 100 µM (inactive) | > 100 µM (inactive) | > 100 µM (inactive) | > 100 µM (inactive) | > 100 µM (inactive) | > 100 µM (inactive) | > 100 µM | > 100 µM (inactive)
Cn1c(=O)n2n(c1=O)C1C(=CC2)C2C=CC1n1c(=O)n(C)c(=O)n12 (stereo not drawn) | > 100 µM (inactive) | > 100 µM (inactive) | > 100 µM (inactive) | > 100 µM (inactive) | > 100 µM (inactive) | > 100 µM (inactive) | > 100 µM (inactive) | > 100 µM (inactive) | > 100 µM (inactive) | > 100 µM (inactive) | > 100 µM (inactive) | > 100 µM (inactive) | > 100 µM (inactive) | > 100 µM (inactive) | > 100 µM (inactive) | > 100 µM (inactive) | > 100 µM (inactive) | > 100 µM (inactive) | > 100 µM | > 100 µM (inactive)
O=C1CC2(c3ccccc3)ON=C(c3ccccc3)N2c2ccccc2N1 (stereo not drawn) |  | 95.3 µM (inactive) | 44.5 µM (inactive) | 71.8 µM (inactive) | 74 µM (inactive) | 61.5 µM (inactive) | 66.4 µM (inactive) | > 100 µM (inactive) | 37.5 µM (inactive) | 35.1 µM (inactive) | 87.1 µM (inactive) | 47.3 µM (inactive) | 52 µM (inactive) | 58.5 µM (inactive) | 42.2 µM (inactive) | 50.5 µM (inactive) | 40.8 µM (inactive) | 24.6 µM (inactive) | 53.8 µM | > 100 µM (inactive)
CC/C(Cl)=N\OC(=O)Nc1ccc(F)cc1F | 19.9 µM (inactive) | 28.3 µM (inactive) | 2.9 µM (inactive) | 17.3 µM (inactive) | 19.9 µM (inactive) | 17.6 µM (inactive) | 2.5 µM (inactive) | 17.9 µM (inactive) | 15.2 µM (inactive) | 17.8 µM (inactive) | 12.8 µM (inactive) | 20 µM (inactive) | 20.6 µM (inactive) | 15.9 µM (inactive) | 1.54 µM (inactive) | 24.1 µM (inactive) | 17.5 µM (inactive) | 6.28 µM (inactive) | 2.34 µM | 7.01 µM (inactive)
N=C(N)c1ccc(/N=N\c2c(O)ccc3c2[nH]c2ccccc23)cc1 | 2.34 µM (inactive) | 77.3 µM (inactive) | > 47.3 µM (inactive) | 45.4 µM (inactive) | 1.85 µM (inactive) | 34.6 µM (inactive) | 2.24 µM (inactive) | 40.5 µM (inactive) | 54.2 µM (inactive) | 58.1 µM (inactive) | 53.1 µM (inactive) | 10.2 µM (inactive) | 8.38 µM (inactive) | 49.8 µM (inactive) | 0.25 µM (active) | 19.5 µM (inactive) | 2.09 µM (inactive) | 2.43 µM (inactive) | 39.1 µM | > 49.5 µM (inactive)
O/N=C1\CCc2cc3c(cc21)CCC3 | > 100 µM (inactive) | > 100 µM (inactive) | > 100 µM (inactive) | > 100 µM (inactive) | > 100 µM (inactive) | > 100 µM (inactive) | > 100 µM (inactive) | > 100 µM (inactive) | > 100 µM (inactive) | > 100 µM (inactive) | > 100 µM (inactive) | > 100 µM (inactive) | 44.3 µM (inactive) | > 100 µM (inactive) | > 100 µM (inactive) | 97.9 µM (inactive) | > 100 µM (inactive) | 86.3 µM (inactive) | > 100 µM | > 100 µM (inactive)
CC(C)(C)c1cc(C(O)(C(=O)O)C(=O)O)cc(C(C)(C)C)c1O | > 100 µM (inactive) | > 100 µM (inactive) | > 100 µM (inactive) | > 100 µM (inactive) | > 100 µM (inactive) | > 100 µM (inactive) | > 100 µM (inactive) | > 100 µM (inactive) | > 100 µM (inactive) | > 100 µM (inactive) | > 100 µM (inactive) | > 100 µM (inactive) | > 100 µM (inactive) | > 100 µM (inactive) | > 100 µM (inactive) | > 100 µM (inactive) | > 100 µM (inactive) | > 100 µM (inactive) | > 100 µM | > 100 µM (inactive)
CC(C)=C[C@@H]1C[C@H](n2cc(C)c(=O)[nH]c2=O)ON1CCO | > 100 µM (inactive) | > 100 µM (inactive) | > 100 µM (inactive) | > 100 µM (inactive) | > 100 µM (inactive) | > 100 µM (inactive) | > 100 µM (inactive) | > 100 µM (inactive) | > 100 µM (inactive) | > 100 µM (inactive) | > 100 µM (inactive) |  | > 100 µM (inactive) | > 100 µM (inactive) | > 100 µM (inactive) | > 100 µM (inactive) | > 100 µM (inactive) | > 100 µM (inactive) | > 100 µM | > 100 µM (inactive)
Cc1cc(N2CCCC2)c([N+](=O)[O-])cc1[N+](=O)[O-] | > 100 µM (inactive) | > 100 µM (inactive) | > 100 µM (inactive) | > 100 µM (inactive) | > 100 µM (inactive) | > 100 µM (inactive) | > 100 µM (inactive) | > 100 µM (inactive) | > 100 µM (inactive) | > 100 µM (inactive) | 80.9 µM (inactive) | > 100 µM (inactive) | > 100 µM (inactive) | > 100 µM (inactive) | > 100 µM (inactive) | > 100 µM (inactive) | > 100 µM (inactive) | > 100 µM (inactive) | > 100 µM | > 100 µM (inactive)
NC(=O)c1nnn(-c2ccccc2)c1O | > 100 µM (inactive) | > 100 µM (inactive) | > 100 µM (inactive) | > 100 µM (inactive) | > 100 µM (inactive) | > 100 µM (inactive) | > 100 µM (inactive) | > 100 µM (inactive) | > 100 µM (inactive) | > 100 µM (inactive) | > 100 µM (inactive) | > 100 µM (inactive) | > 100 µM (inactive) | > 100 µM (inactive) | > 100 µM (inactive) | > 100 µM (inactive) | > 100 µM (inactive) | > 100 µM (inactive) | > 100 µM | > 100 µM (inactive)

From ChEMBL document CHEMBL1201862, “PubChem BioAssay data set” (2004)
